According to the supplement of paper PMC10307832:

How the values were obtained:
Test in all cases: relative viability (nuclei count vs DMSO), 5 days (fraction); higher = more cells survive
Kobe2602 + Lapatinib = compound: C1=CC(=CC=C1NC(=S)NNC2=C(C=C(C=C2[N+](=O)[O-])C(F)(F)F)[N+](=O)[O-])F [Kobe2602] + CS(=O)(=O)CCNCc1ccc(-c2ccc3ncnc(Nc4ccc(OCc5cccc(F)c5)c(Cl)c4)c3c2)o1 [Lapatinib] (partner 2 µM)
Summary of the method: (§1)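 Relative viability divides the nuclei count in treated wells by that in vehicle wells. Lung cancer cell lines were seeded in 1536-well plates, dosed by pin tool the next day, and fixed and stained after 5 days in one step with final 0.05% Triton X-100, 1% formaldehyde and 1 ug/ml Hoechst. Dosing was a single drug or a fixed anchor-drug dose plus five library-drug doses (not always all listed) in √10 steps, and values are medians of duplicate plates imaged at 4×.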

[1] = compound: COc1cc2nccc(Oc3ccc(NC(=O)C4(C(=O)Nc5ccc(F)cc5)CC4)cc3)c2cc1OC [Cabozantinib] + C[C@]1(O)C[C@@H](c2nc(-c3ccc4ccc(-c5ccccc5)nc4c3)c3c(N)nccn32)C1 [Linsitinib] (partner 1 µM)
Summary of the method: as §1

Kobe2602 + Navitoclax = compound: C1=CC(=CC=C1NC(=S)NNC2=C(C=C(C=C2[N+](=O)[O-])C(F)(F)F)[N+](=O)[O-])F [Kobe2602] + CC1(C)CCC(c2ccc(Cl)cc2)=C(CN2CCN(c3ccc(C(=O)NS(=O)(=O)c4ccc(N[C@H](CCN5CCOCC5)CSc5ccccc5)c(S(=O)(=O)C(F)(F)F)c4)cc3)CC2)C1 [Navitoclax] (partner 0.5 µM)
Summary of the method: as §1

[2] = compound: COc1cc2nccc(Oc3ccc(NC(=O)C4(C(=O)Nc5ccc(F)cc5)CC4)cc3)c2cc1OC [Cabozantinib] + CC(C)C[C@H](NC(=O)[C@H](Cc1ccccc1)NC(=O)c1cnccn1)B(O)O [Bortezomib] (partner 0.002 µM)
Summary of the method: as §1

NCI-H2405
relative viability (Kobe2602 + Lapatinib; first compound 0.2 µM): 1.05 | relative viability (Kobe2602 + Lapatinib; first compound 0.6325 µM): 1.17 | relative viability (Kobe2602 + Lapatinib; first compound 2 µM): 1.01 | relative viability (Kobe2602 + Lapatinib; first compound 6.325 µM): 1.2 | relative viability (Kobe2602 + Lapatinib; first compound 20 µM): 1.33 | relative viability ([1]; first compound 0.06325 µM): 1.14 | relative viability ([1]; first compound 0.2 µM): 0.905 | relative viability ([1]; first compound 0.6325 µM): 0.908 | relative viability ([1]; first compound 2 µM): 0.852 | relative viability (Kobe2602 + Navitoclax; first compound 0.2 µM): 0.82 | relative viability (Kobe2602 + Navitoclax; first compound 0.6325 µM): 0.847 | relative viability (Kobe2602 + Navitoclax; first compound 2 µM): 0.783 | relative viability (Kobe2602 + Navitoclax; first compound 6.325 µM): 1.06 | relative viability (Kobe2602 + Navitoclax; first compound 20 µM): 0.987 | relative viability ([2]; first compound 0.02 µM): 0.947 | relative viability ([2]; first compound 0.06325 µM): 1.06 | relative viability ([2]; first compound 0.2 µM): 0.989 | relative viability ([2]; first compound 0.6325 µM): 0.871 | relative viability ([2]; first compound 2 µM): 1.04

NCI-H2009
relative viability (Kobe2602 + Lapatinib; first compound 0.2 µM): 0.878 | relative viability (Kobe2602 + Lapatinib; first compound 0.6325 µM): 1.14 | relative viability (Kobe2602 + Lapatinib; first compound 2 µM): 0.895 | relative viability (Kobe2602 + Lapatinib; first compound 6.325 µM): 1.04 | relative viability (Kobe2602 + Lapatinib; first compound 20 µM): 0.871 | relative viability ([1]; first compound 0.02 µM): 1.23 | relative viability ([1]; first compound 0.06325 µM): 1.17 | relative viability ([1]; first compound 0.2 µM): 1.18 | relative viability ([1]; first compound 0.6325 µM): 1.19 | relative viability ([1]; first compound 2 µM): 1.23 | relative viability (Kobe2602 + Navitoclax; first compound 0.2 µM): 1.19 | relative viability (Kobe2602 + Navitoclax; first compound 0.6325 µM): 1.25 | relative viability (Kobe2602 + Navitoclax; first compound 2 µM): 1.14 | relative viability (Kobe2602 + Navitoclax; first compound 6.325 µM): 1.19 | relative viability (Kobe2602 + Navitoclax; first compound 20 µM): 1.14 | relative viability ([2]; first compound 0.02 µM): 1.06 | relative viability ([2]; first compound 0.06325 µM): 1.15 | relative viability ([2]; first compound 0.2 µM): 1.07 | relative viability ([2]; first compound 0.6325 µM): 1.16 | relative viability ([2]; first compound 2 µM): 0.998

HCC-827
relative viability (Kobe2602 + Lapatinib; first compound 0.2 µM): 0.189 | relative viability (Kobe2602 + Lapatinib; first compound 0.6325 µM): 0.211 | relative viability (Kobe2602 + Lapatinib; first compound 2 µM): 0.231 | relative viability (Kobe2602 + Lapatinib; first compound 6.325 µM): 0.177 | relative viability (Kobe2602 + Lapatinib; first compound 20 µM): 0.227 | relative viability ([1]; first compound 0.02 µM): 0.945 | relative viability ([1]; first compound 0.06325 µM): 1.02 | relative viability ([1]; first compound 0.6325 µM): 1.03 | relative viability ([1]; first compound 2 µM): 0.972 | relative viability (Kobe2602 + Navitoclax; first compound 0.2 µM): 0.987 | relative viability (Kobe2602 + Navitoclax; first compound 0.6325 µM): 1.13 | relative viability (Kobe2602 + Navitoclax; first compound 2 µM): 1.06 | relative viability (Kobe2602 + Navitoclax; first compound 6.325 µM): 1.03 | relative viability (Kobe2602 + Navitoclax; first compound 20 µM): 0.981 | relative viability ([2]; first compound 0.02 µM): 0.981 | relative viability ([2]; first compound 0.06325 µM): 1.1 | relative viability ([2]; first compound 0.6325 µM): 1.11 | relative viability ([2]; first compound 2 µM): 1.06

NCI-H838
relative viability (Kobe2602 + Lapatinib; first compound 0.2 µM): 0.905 | relative viability (Kobe2602 + Lapatinib; first compound 0.6325 µM): 1.14 | relative viability (Kobe2602 + Lapatinib; first compound 2 µM): 0.96 | relative viability (Kobe2602 + Lapatinib; first compound 6.325 µM): 1 | relative viability (Kobe2602 + Lapatinib; first compound 20 µM): 0.87 | relative viability ([1]; first compound 0.02 µM): 1.03 | relative viability ([1]; first compound 0.06325 µM): 1.04 | relative viability ([1]; first compound 0.2 µM): 1.1 | relative viability ([1]; first compound 0.6325 µM): 0.943 | relative viability ([1]; first compound 2 µM): 0.821 | relative viability (Kobe2602 + Navitoclax; first compound 0.2 µM): 1.17 | relative viability (Kobe2602 + Navitoclax; first compound 0.6325 µM): 1.22 | relative viability (Kobe2602 + Navitoclax; first compound 2 µM): 1.12 | relative viability (Kobe2602 + Navitoclax; first compound 6.325 µM): 1.13 | relative viability (Kobe2602 + Navitoclax; first compound 20 µM): 1.17 | relative viability ([2]; first compound 0.02 µM): 0.746 | relative viability ([2]; first compound 0.06325 µM): 0.95 | relative viability ([2]; first compound 0.2 µM): 0.941 | relative viability ([2]; first compound 0.6325 µM): 0.685 | relative viability ([2]; first compound 2 µM): 1.04

CAL-12T
relative viability (Kobe2602 + Lapatinib; first compound 0.2 µM): 0.676 | relative viability (Kobe2602 + Lapatinib; first compound 0.6325 µM): 0.717 | relative viability (Kobe2602 + Lapatinib; first compound 2 µM): 0.681 | relative viability (Kobe2602 + Lapatinib; first compound 6.325 µM): 0.627 | relative viability (Kobe2602 + Lapatinib; first compound 20 µM): 0.696 | relative viability ([1]; first compound 0.02 µM): 0.861 | relative viability ([1]; first compound 0.06325 µM): 0.874 | relative viability ([1]; first compound 0.2 µM): 0.87 | relative viability ([1]; first compound 0.6325 µM): 0.786 | relative viability ([1]; first compound 2 µM): 0.816 | relative viability (Kobe2602 + Navitoclax; first compound 0.2 µM): 1.2 | relative viability (Kobe2602 + Navitoclax; first compound 0.6325 µM): 1.25 | relative viability (Kobe2602 + Navitoclax; first compound 2 µM): 1.31 | relative viability (Kobe2602 + Navitoclax; first compound 6.325 µM): 1.39 | relative viability (Kobe2602 + Navitoclax; first compound 20 µM): 1.2 | relative viability ([2]; first compound 0.02 µM): 0.876 | relative viability ([2]; first compound 0.06325 µM): 1.25 | relative viability ([2]; first compound 0.2 µM): 0.882 | relative viability ([2]; first compound 2 µM): 1.06

RERF-LC-KJ
relative viability (Kobe2602 + Lapatinib; first compound 0.2 µM): 0.851 | relative viability (Kobe2602 + Lapatinib; first compound 0.6325 µM): 0.842 | relative viability (Kobe2602 + Lapatinib; first compound 2 µM): 0.809 | relative viability (Kobe2602 + Lapatinib; first compound 6.325 µM): 0.697 | relative viability (Kobe2602 + Lapatinib; first compound 20 µM): 0.831 | relative viability ([1]; first compound 0.02 µM): 0.909 | relative viability ([1]; first compound 0.06325 µM): 0.885 | relative viability ([1]; first compound 0.2 µM): 0.813 | relative viability ([1]; first compound 0.6325 µM): 0.883 | relative viability ([1]; first compound 2 µM): 0.875 | relative viability (Kobe2602 + Navitoclax; first compound 0.2 µM): 0.804 | relative viability (Kobe2602 + Navitoclax; first compound 0.6325 µM): 0.993 | relative viability (Kobe2602 + Navitoclax; first compound 2 µM): 0.856 | relative viability (Kobe2602 + Navitoclax; first compound 6.325 µM): 0.971 | relative viability (Kobe2602 + Navitoclax; first compound 20 µM): 0.858 | relative viability ([2]; first compound 0.02 µM): 1.11 | relative viability ([2]; first compound 0.06325 µM): 1.04 | relative viability ([2]; first compound 0.2 µM): 1.26 | relative viability ([2]; first compound 0.6325 µM): 1.05 | relative viability ([2]; first compound 2 µM): 1.06

NCI-H2347
relative viability (Kobe2602 + Lapatinib; first compound 0.2 µM): 0.939 | relative viability (Kobe2602 + Lapatinib; first compound 0.6325 µM): 0.963 | relative viability (Kobe2602 + Lapatinib; first compound 2 µM): 0.913 | relative viability (Kobe2602 + Lapatinib; first compound 6.325 µM): 0.988 | relative viability (Kobe2602 + Lapatinib; first compound 20 µM): 0.909 | relative viability ([1]; first compound 0.02 µM): 0.967 | relative viability ([1]; first compound 0.06325 µM): 0.961 | relative viability ([1]; first compound 0.2 µM): 0.992 | relative viability ([1]; first compound 0.6325 µM): 0.846 | relative viability ([1]; first compound 2 µM): 0.81 | relative viability (Kobe2602 + Navitoclax; first compound 0.2 µM): 0.697 | relative viability (Kobe2602 + Navitoclax; first compound 0.6325 µM): 0.82 | relative viability (Kobe2602 + Navitoclax; first compound 2 µM): 0.753 | relative viability (Kobe2602 + Navitoclax; first compound 6.325 µM): 0.789 | relative viability (Kobe2602 + Navitoclax; first compound 20 µM): 0.807 | relative viability ([2]; first compound 0.02 µM): 0.875 | relative viability ([2]; first compound 0.06325 µM): 1.34 | relative viability ([2]; first compound 0.2 µM): 0.944 | relative viability ([2]; first compound 0.6325 µM): 0.963 | relative viability ([2]; first compound 2 µM): 0.666

PC-14
relative viability (Kobe2602 + Lapatinib; first compound 0.2 µM): 0.31 | relative viability (Kobe2602 + Lapatinib; first compound 0.6325 µM): 0.426 | relative viability (Kobe2602 + Lapatinib; first compound 2 µM): 0.294 | relative viability (Kobe2602 + Lapatinib; first compound 6.325 µM): 0.333 | relative viability (Kobe2602 + Lapatinib; first compound 20 µM): 0.306 | relative viability ([1]; first compound 0.02 µM): 1.09 | relative viability ([1]; first compound 0.06325 µM): 1 | relative viability ([1]; first compound 0.6325 µM): 0.961 | relative viability ([1]; first compound 2 µM): 0.927 | relative viability (Kobe2602 + Navitoclax; first compound 0.2 µM): 0.978 | relative viability (Kobe2602 + Navitoclax; first compound 0.6325 µM): 1.04 | relative viability (Kobe2602 + Navitoclax; first compound 2 µM): 0.982 | relative viability (Kobe2602 + Navitoclax; first compound 6.325 µM): 1.03 | relative viability (Kobe2602 + Navitoclax; first compound 20 µM): 0.971 | relative viability ([2]; first compound 0.02 µM): 0.952 | relative viability ([2]; first compound 0.06325 µM): 0.89 | relative viability ([2]; first compound 0.6325 µM): 0.829 | relative viability ([2]; first compound 2 µM): 0.8
